In patent publication US20220280561A1, “COPPER-ATSM FOR TREATING NEURODEGENERATIVE DISORDERS ASSOCITED WITH MITOCHONDRIAL DYSFUNCTION” (RESEARCH INSTITUTE AT NATIONWIDE CHILDREN'S HOSPITAL, priority 2019, published 2022):

Tests used:
[1] = system: ALS iAstrocytes; experiment: Seahorse extracellular flux analysis, basal and ATP-linked respiration, energy map, ALS iAstrocytes; assay type: cell-based, human
Description: Neuronal progenitors cells were cultured on fibronectin coated dishes in NPC media (DMEM/F12 media containing 1% N2 supplement (Life Technologies), 1% B27 and 20 ng/ml fibroblast growth factor-2) until confluent. Astrocytes were differentiated by seeding a small quantity of NPCs on another fibronectin coated dish in astrocyte inducing media (DMEM media containing 0.2% N2 and 10% FBS). Cells were treated with CuATSM daily, beginning day 2 of differentiation. Five days post differentiation, induced astrocytes were seeded either into a 96 well (10,000 cells/well), 384 well (2,500 cells/well), a 24 well seahorse plate (20,000 cells/well) or a 96 well seahorse plate (25,000 cells/well treated, 12,500 cells/well untreated).
(§1) Mitochondrial function: Induced astrocytes were seeded on 24 well seahorse plates in quadruplicate or a 96 well seahorse plate in quintuplicate as summarized in FIG. 9C. Twenty-four hours later media was replaced with seahorse base media containing 10 Mm glucose and 2 Mm glutamine. Oligomycin (1 Um), FCCP (5 Um) and antimycin A (10 Um) were injected separately to evaluate oxygen consumption following inhibition of the ATPase synthase, mitochondrial uncoupling and total shutdown of the electron transport chain. Alternatively, iAstrocyte media was replaced with a mitochondrial buffer (220 Mm mannitol, 70 Mm sucrose, 10 Mm KH2PO4, 5 Mm Hepes, 1 Mm EGTA and 0.2% Fatty acid free BSA) to measure complex IV dependent oxygen consumption. CoxIV activity was induced using 0.5 Mm TMPD, 2 Mm Ascorbate, 1 Mm ADP, 10 Um antimycin A, 10 Mm azide and 1.1 nM seahorse XF membrane permeabilizer. Oxygen consumption was measured in both assays using the Seahorse XF and Seahorse XFe.
Given that CuATSM responders have elevation in basal and/or ATP-linked respiration as well as complex IV activity, it was sought to determine if CuATSM treatment can restore mitochondrial activity to normal range. To do so, the basal and/or ATP-linked respiration of treated and untreated astrocytes were compared. […]

[2] = system: complex IV (CoxIV) in ALS iAstrocytes; experiment: Seahorse complex IV (CoxIV) activity on permeabilized iAstrocytes; assay type: cell-based, human; conditions: ALS iAstrocytes treated vs untreated; not fully reduced to healthy control levels
Description: as §1

[3] = system: ALS iAstrocytes; experiment: Seahorse glycolysis (glycoPER), mitochondrial coupling and fuel dependency in iAstrocytes; assay type: cell-based, human
Description: Oxygen consumption rate (OCR) and extracellular acidification rate (ECAR) were used to calculate glycolytic […] efflux rate (glycoPER), which quantifies media acidification by lactate production. Total cellular glycolysis (FIG. 12B) is measured following mitochondrial shutdown (difference between basal and AA/Rot injection). Percent mitochondrial coupling (FIG. 12C) was calculated using values from basal and/or ATP-linked respiration using data from FIG. 2. […] Dashed bars indicate patient lines classified as nonresponders in co-culture assay. Dotted line represents average control values. Data represents a minimum of 3 independent experiments. Statistical analysis was performed using one way ANOVA comparing average controls.
The impact of CuATSM on mitochondrial activity and glycolysis was assessed using the Seahorse. iAstrocytes were seeded on a 24 or 96 well Seahorse plate for extracellular flux analysis. Oxygen consumption rate (OCR) and extracellular acidification rate (ECAR) were used to calculate glycolytic […] efflux rate (glycoPER), which quantifies media acidification by lactate production. Total cellular glycolysis (FIG. 13A) is measured following inhibition of mitochondrial electron transport chain. Mitochondrial coupling (FIG. 13B) was calculated using values for basal and/or ATP-linked respiration obtained from FIG. 3. Dashed bars indicate patient lines classified as nonresponders in co-culture assay. […] In addition, slight mitochondrial uncoupling was observed which may explain the previously observed reduction in mitochondrial activity. Dotted line represents average control values. Data for FIGS. 13A-13B represents a minimum of 3 independent experiments. Statistical analysis was performed using a student t-test comparing treated lines against corresponding untreated controls.
The effect of CuATSM on mitochondrial dependency on glutamine (FIG. 16A), fatty acid (FIG. 16B) and glucose (FIG. 16C) oxidation is determined using the Seahorse. Basal oxygen consumption (OCR) was measured for three time points followed by a pathway specific inhibitor (UK5099, etomoxir, BPTES). The difference in OCR following inhibitor addition determines mitochondrial fuel dependency on specific pathway tested. […] Dotted line represents average control values. Data represents a minimum of 3 independent experiments. Statistical analysis was performed using one way ANOVA comparing the average of controls.
Astrocytes provide critical metabolic support for motor neurons by releasing lactate that can be used as a source of energy, thus glycolysis is a key metabolic phenotype of astrocytes. […] Based on these observations it was next determined whether CuATSM was impacting mitochondrial coupling. […]

[4] = in vivo; cited from earlier work
[5] = ALS patient iAstrocytes, treated vs untreated, all patient lines, to levels at or below healthy untreated controls

CN=C([S-])N/N=C(C)/C(C)=N/NC([S-])=NC.[Cu+2] [CuATSM, diacetyl-bis(4-methylthiosemicarbazonato) copperII]
ATP-linked respiration [1, 5]: significantly reduced | basal respiration [1, 5]: significantly reduced | mitochondrial activity / energy state (OCR vs ECAR energy map) ([1]; ALS responders before and after treatment): restores the mitochondrial activity of ALS responders to a healthy energy state | CoxIV activity [2]: significantly reduced in the all but one patient line (ALS1) | mitochondrial dependency on glucose ([3]; CuATSM nonresponders): not changed | mitochondrial coupling ([3]; all iAstrocytes treated with CuATSM): modest, yet significant reduction in coupling | cellular glycolysis ([3]; every cell line tested, including responders, nonresponders and healthy controls): significant increase in cellular glycolysis | mitochondrial dependency on glutamine, fatty acid and glucose oxidation ([3]; patient iAstrocytes, changes are patient specific): does not impact mitochondrial metabolic dependency | safety in humans [4]: safe use in humans
